Results on 24 compounds are retold here after patent US9394275B2, “Diamide compounds having muscarinic receptor antagonist and BETA2 adrenergic receptor agonist activity” (THERAVANCE RESPIRATORY COMPANY, LLC, priority 2009, dated 2016).

The subject of the assay is MCh-induced bronchoconstriction in a rat. As to the kind of experiment: Einthoven assay: bronchoprotection against methacholine (MCh)-induced bronchoconstriction. In kind it is in vivo. To be noted: for inhibition in vivo at 0.1 mg: inhaled or nasal, read-out: Broncho. at 24 h. Here is the method: This assay measures the ability of a test compound to provide bronchoprotection against methacholine (MCh)-induced bronchoconstriction in a rat. Male Sprague-Dawley rats (Harlan, Indianapolis, Ind.), weighing between 200 g and 350 g, were used for all studies. Test compound or vehicle (sterile deionized water) were dosed by inhalation (IH) over a 10 min period in a pie shaped inhalation chamber (R+S Molds, San Carlos, Calif.) using 5 mL of dosing solution. […] Rats were dosed with 100 μg of test compound unless otherwise indicated. At predetermined time points, rats were anesthetized with an intraperitoneal (IP) injection of 120 mg/kg inactin (thiobutabarbital). A supplemental dose (40 mg/kg, IP) was administered if the animal responded to physical stimuli (e.g. toe pinch). The surgical site was shaved and a 1-2 cm midline incision of the ventral aspect of the neck was made. The jugular vein was isolated and cannulated with a saline-filled polyethylene catheter (PE-50) to allow IV infusion of MCh. Trachea was dissected free and cannulated with a 14G needle (#NE-014, Small Parts, Miami Lakes, Fla.). After placement of the tracheal cannula, each rat was ventilated using a respirator (Model 683, Harvard Apparatus, Inc., MA) set at a stroke volume of 1 mL/100 g body weight (but not exceeding 2.5 mL volume) and a rate of 90 strokes per minute. A T-connector was placed along the respirator expiratory tubing to allow for measurement of changes in ventilation pressure (VP) using a Biopac transducer that was connected to a Biopac […]) pre-amplifier. Body temperature was maintained at 37° C. using a heating pad. Changes in VP were recorded using the Acknowledge Data Collection Software (Santa Barbara, Calif.). Baseline values were collected for at least 2.5 min. Rats were then challenged with non-cumulative intravenous (IV) infusions of 40 and 80 μg/kg MCh. MCh was infused intravenously for 2.5 minutes from a syringe pump (sp210iw, World Precision Instruments, Inc., Sarasota, Fla.) at a rate of 2 mL/kg/min, with a 2 minute interval between the two doses of MCh. Changes in ventilation pressure (cm H2O) in treated animals are expressed as % inhibition of MCh response relative to control animals. Other bronchoconstrictors, such as histamine and acetylcholine, can be used in place of MCh in this assay. Additionally, guinea pigs can be used instead of rats. […] Inhibition greater than or equal to 30 percent at 24 h is indicative of a long duration of action.

Setting [1] is: rat, 100 μg by inhalation, 24 h after administration.

Counter-ions that a name gives are not always drawn. Like-named read-outs stand apart in the source and are kept apart here.

In the case of `C[C@H](Cc1ccc(NC(=O)c2cccc(N(C)C(=O)CCN3CCC(OC(=O)Nc4ccccc4-c4ccccc4)CC3)c2)cc1)NC[C@H](O)c1ccc(O)c2[nH]c(=O)ccc12` [Compound I-42], the “Broncho. at 24 h” value under setting [1] was “No”. On the same count and under the same terms, with `COc1cc(CNC[C@H](O)c2ccc(O)c3[nH]c(=O)ccc23)ccc1NC(=O)c1cccc(N(C)C(=O)CCN2CCC(OC(=O)Nc3ccccc3-c3ccccc3)CC2)c1` [Compound I-29] the entry was “No”. Take `C[C@H](Cc1cccc(CCNC(=O)Cc2ccc(N(C)C(=O)CCN3CCC(OC(=O)Nc4ccccc4-c4ccccc4)CC3)cc2)c1)NC[C@H](O)c1ccc(O)c2[nH]c(=O)ccc12` [Compound I-86, Biphenyl-2-ylcarbamic Acid 1-{2-[(4-{[2-(3-{(R)-2-[(R)-2-Hydroxy-2-(8-hydroxy-2-oxo-1,2-dihydroquinolin-5-yl)ethylamino]propyl}phenyl)-ethylcarbamoyl]methyl}phenyl)methylcarbamoyl]ethyl}piperidin-4-yl Ester Ditrifluoroacetic Acid Salt]: the inhibition in vivo at 0.1 mg (Rattus norvegicus, 24 h) is > 30%.

For the compound `Cc1cc(CNC[C@H](O)c2ccc(O)c3[nH]c(=O)ccc23)ccc1NC(=O)CCCN(C)C(=O)CCN1CCC(OC(=O)Nc2ccccc2-c2ccccc2)CC1` [Compound I-2], the “Broncho. at 24 h” value under setting [1] was “No”.

On to `Cc1ccc(C(=O)Nc2cccc(CC(C)NC[C@H](O)c3ccc(O)c4[nH]c(=O)ccc34)c2)cc1N(C)C(=O)CCN1CCC(OC(=O)Nc2ccccc2-c2ccccc2)CC1` (stereo partly drawn) [Compound I-37], for which the “Broncho. at 24 h” value under setting [1] was “No”. Regarding `C[C@H](Cc1cccc(CC(=O)NCCCN(C)C(=O)CCN2CCC(OC(=O)Nc3ccccc3-c3ccccc3)CC2)c1)NC[C@H](O)c1ccc(O)c2[nH]c(=O)ccc12` [Compound I-12], the “Broncho. at 24 h” value under setting [1] was “No”. The same measure, in the same setting: with `Cc1ccc(C(=O)NCc2cccc(CC(C)NC[C@H](O)c3ccc(O)c4[nH]c(=O)ccc34)c2)cc1N(C)C(=O)CCN1CCC(OC(=O)Nc2ccccc2-c2ccccc2)CC1` (stereo partly drawn) [Compound I-45] the entry was “No”; with `C[C@@H](Cc1cccc(CC(=O)NCc2ccc(N(C)C(=O)CCN3CCC(OC(=O)Nc4ccccc4-c4ccccc4)CC3)cc2)c1)NC[C@H](O)c1ccc(O)c2[nH]c(=O)ccc12` [Compound I-79], “No”.

Turning to `Cc1cc(NC(=O)CCCCN(C)C(=O)CCN2CCC(OC(=O)Nc3ccccc3-c3ccccc3)CC2)c(C)cc1CNC[C@H](O)c1ccc(O)c2[nH]c(=O)ccc12` [Compound I-18, Biphenyl-2-ylcarbamic Acid 1-(2-{[4-(4-{[(R)-2-Hydroxy-2-(8-hydroxy-2-oxo-1,2-dihydroquinolin-5-yl)ethylamino]methyl}-2,5-dimethylphenylcarbamoyl)butyl]methylcarbamoyl}ethyl)piperidin-4-yl Ester Ditrifluoroacetic Acid Salt], the “Broncho. at 24 h” value under setting [1] was “Yes (Bronchoprotective effect present at 24 h, e.g., ≧30% inhibition of the MCh response at 24 h in the rat Einthoven assay (100 μg))”.

Take `Cc1cc(CNC[C@H](O)c2ccc(O)c3[nH]c(=O)ccc23)ccc1NC(=O)c1ccc(C)c(N(C)C(=O)CCN2CCC(OC(=O)Nc3ccccc3-c3ccccc3)CC2)c1` [Compound I-28]: the “Broncho. at 24 h” value under setting [1] is reported as “No”. `C[C@@H](Cc1cccc(CCNC(=O)c2ccc(N(C)C(=O)CCN3CCC(OC(=O)Nc4ccccc4-c4ccccc4)CC3)cc2)c1)NC[C@H](O)c1ccc(O)c2[nH]c(=O)ccc12` [Compound I-56]: the “Broncho. at 24 h” value under setting [1] was “No”.

Consider `CC(Cc1cccc(CC(=O)Nc2cccc(N(C)C(=O)CCN3CCC(OC(=O)Nc4ccccc4-c4ccccc4)CC3)c2)c1)NC[C@H](O)c1ccc(O)c2[nH]c(=O)ccc12` (stereo partly drawn) [Compound I-52], for which the “Broncho. at 24 h” value under setting [1] was “No”. Take `Cc1ccc(C(=O)Nc2cccc(CCNC[C@H](O)c3ccc(O)c4[nH]c(=O)ccc34)c2)cc1N(C)C(=O)CCN1CCC(OC(=O)Nc2ccccc2-c2ccccc2)CC1` [Compound I-33]: under setting [1], the “Broncho. at 24 h” value is recorded as “No”. In the case of `CN(C(=O)CCN1CCC(OC(=O)Nc2ccccc2-c2ccccc2)CC1)c1cccc(C(=O)Nc2cccc(CCNC[C@H](O)c3ccc(O)c4[nH]c(=O)ccc34)c2)c1` [Compound I-32], the “Broncho. at 24 h” value under setting [1] was “No”. Still for that read-out and setting: under `CN(C(=O)CCN1CCC(OC(=O)Nc2ccccc2-c2ccccc2)CC1)c1ccc(CC(=O)NCc2ccc(CCNC[C@H](O)c3ccc(O)c4[nH]c(=O)ccc34)cc2)cc1` [Compound I-64] stands “No”; under `C[C@H](Cc1cccc(NC(=O)c2cccc(N(C)C(=O)CCN3CCC(OC(=O)Nc4ccccc4-c4ccccc4)CC3)c2)c1)NC[C@H](O)c1ccc(O)c2[nH]c(=O)ccc12` [Compound I-38], “No”. For `Cc1ccc(C(=O)Nc2ccc(CCNC[C@H](O)c3ccc(O)c4[nH]c(=O)ccc34)cc2)cc1N(C)C(=O)CCN1CCC(OC(=O)Nc2ccccc2-c2ccccc2)CC1` [Compound I-35], the inhibition in vivo at 0.1 mg under setting [1] was > 30%. Turning to `CC(Cc1ccc(CNC(=O)Cc2ccc(N(C)C(=O)CCN3CCC(OC(=O)Nc4ccccc4-c4ccccc4)CC3)cc2)cc1)NC[C@H](O)c1ccc(O)c2[nH]c(=O)ccc12` (stereo partly drawn) [Compound I-66], the “Broncho. at 24 h” value under setting [1] is given as “No”. In the case of `CN(CCCCC(=O)Nc1ccc(CNC[C@H](O)c2ccc(O)c3[nH]c(=O)ccc23)cc1)C(=O)CCN1CCC(OC(=O)Nc2ccccc2-c2ccccc2)CC1` [Compound I-14, Biphenyl-2-ylcarbamic Acid 1-(2-{[4-(4-{[(R)-2-hydroxy-2-(8-hydroxy-2-oxo-1,2-dihydroquinolin-5-yl)ethylamino]methyl}phenylcarbamoyl)-butyl]methylcarbamoyl}ethyl)piperidin-4-yl Ester Ditrifluoroacetic Acid Salt], under setting [1], the “Broncho. at 24 h” value was “Yes (Bronchoprotective effect present at 24 h, e.g., ≧30% inhibition of the MCh response at 24 h in the rat Einthoven assay (100 μg))”. The same measure, in the same setting: with `Cc1cc(NC(=O)c2cccc(N(C)C(=O)CCN3CCC(OC(=O)Nc4ccccc4-c4ccccc4)CC3)c2)c(C)cc1CNC[C@H](O)c1ccc(O)c2[nH]c(=O)ccc12` [Compound I-30] the entry was “No”; with `C[C@@H](Cc1cccc(NC(=O)c2cccc(N(C)C(=O)CCN3CCC(OC(=O)Nc4ccccc4-c4ccccc4)CC3)c2)c1)NC[C@H](O)c1ccc(O)c2[nH]c(=O)ccc12` [Compound I-39], “No”. On the same count and under the same terms, with `CC(Cc1cccc(CNC(=O)c2cccc(N(C)C(=O)CCN3CCC(OC(=O)Nc4ccccc4-c4ccccc4)CC3)c2)c1)NC[C@H](O)c1ccc(O)c2[nH]c(=O)ccc12` (stereo partly drawn) [Compound I-44] the entry was “No”; with `CC(Cc1ccc(CC(=O)NCc2ccc(N(C)C(=O)CCN3CCC(OC(=O)Nc4ccccc4-c4ccccc4)CC3)cc2)cc1)NC[C@H](O)c1ccc(O)c2[nH]c(=O)ccc12` (stereo partly drawn) [Compound I-80], “No”. Take `Cc1cc(CNC[C@H](O)c2ccc(O)c3[nH]c(=O)ccc23)ccc1NC(=O)c1cccc(N(C)C(=O)CCN2CCC(OC(=O)Nc3ccccc3-c3ccccc3)CC2)c1` [Compound I-27]: the “Broncho. at 24 h” value under setting [1] was “No”.
